Assay results as given in the NIST ThermoML archive (doi:10.1021/je100851w).

Assay: xn = mol fraction of the nth substance listed
Conditions: Vibrating tube method

S [hydrogen sulfide] + CCC
Conditions	mass density [kg/m3]
333.22 K, 2048 kPa, Gas, x1 = 0.2227	40
333.22 K, 2176 kPa, Gas, x1 = 0.2227	43.6
333.22 K, 2300 kPa, Gas, x1 = 0.2227	47.2
333.22 K, 2398 kPa, Gas, x1 = 0.2227	50.2
333.22 K, 2551 kPa, Gas, x1 = 0.2227	55.6
333.22 K, 2630 kPa, Gas, x1 = 0.2227	59.1
333.22 K, 2722 kPa, Gas, x1 = 0.2227	62.4
333.22 K, 2778 kPa, Gas, x1 = 0.2227	65.4
333.22 K, 3571 kPa, Liquid, x1 = 0.2227	438.6
333.22 K, 3861 kPa, Liquid, x1 = 0.2227	441.9
333.22 K, 4197 kPa, Liquid, x1 = 0.2227	445.2
333.22 K, 4915 kPa, Liquid, x1 = 0.2227	450.2
333.22 K, 5323 kPa, Liquid, x1 = 0.2227	453.4
333.22 K, 5731 kPa, Liquid, x1 = 0.2227	456.4
333.22 K, 6177 kPa, Liquid, x1 = 0.2227	459.5
333.22 K, 6686 kPa, Liquid, x1 = 0.2227	462.8
333.22 K, 7239 kPa, Liquid, x1 = 0.2227	466.1
333.22 K, 7781 kPa, Liquid, x1 = 0.2227	469.2
333.22 K, 8351 kPa, Liquid, x1 = 0.2227	472.3
333.22 K, 8992 kPa, Liquid, x1 = 0.2227	475.5
333.22 K, 9907 kPa, Liquid, x1 = 0.2227	479.8
333.22 K, 10643 kPa, Liquid, x1 = 0.2227	482.8
333.22 K, 11360 kPa, Liquid, x1 = 0.2227	485.8
333.22 K, 12135 kPa, Liquid, x1 = 0.2227	488.8
333.22 K, 12959 kPa, Liquid, x1 = 0.2227	491.9
333.22 K, 13811 kPa, Liquid, x1 = 0.2227	495
333.22 K, 14817 kPa, Liquid, x1 = 0.2227	498.4
333.22 K, 15868 kPa, Liquid, x1 = 0.2227	501.8
333.22 K, 16856 kPa, Liquid, x1 = 0.2227	504.8
333.22 K, 17893 kPa, Liquid, x1 = 0.2227	507.8
333.22 K, 18975 kPa, Liquid, x1 = 0.2227	510.8
333.22 K, 20100 kPa, Liquid, x1 = 0.2227	513.8
333.22 K, 21435 kPa, Liquid, x1 = 0.2227	517.2
333.22 K, 22830 kPa, Liquid, x1 = 0.2227	520.5
333.22 K, 24120 kPa, Liquid, x1 = 0.2227	523.5
333.22 K, 25466 kPa, Liquid, x1 = 0.2227	526.5
333.22 K, 26959 kPa, Liquid, x1 = 0.2227	529.7
333.22 K, 28465 kPa, Liquid, x1 = 0.2227	532.7
333.22 K, 30160 kPa, Liquid, x1 = 0.2227	536
333.22 K, 31961 kPa, Liquid, x1 = 0.2227	539.4
333.22 K, 33791 kPa, Liquid, x1 = 0.2227	542.6
333.22 K, 35752 kPa, Liquid, x1 = 0.2227	546
333.22 K, 37781 kPa, Liquid, x1 = 0.2227	549.3
333.22 K, 39778 kPa, Liquid, x1 = 0.2227	552.5
363.24 K, 9 kPa, Fluid (supercritical or subcritical phases), x1 = 0.2691	0.1
363.24 K, 313 kPa, Fluid (supercritical or subcritical phases), x1 = 0.2691	4.4
363.24 K, 596 kPa, Fluid (supercritical or subcritical phases), x1 = 0.2691	8.6
363.24 K, 842 kPa, Fluid (supercritical or subcritical phases), x1 = 0.2691	12.3
363.24 K, 1110 kPa, Fluid (supercritical or subcritical phases), x1 = 0.2691	16.6
363.24 K, 1358 kPa, Fluid (supercritical or subcritical phases), x1 = 0.2691	20.8
363.24 K, 1602 kPa, Fluid (supercritical or subcritical phases), x1 = 0.2691	25
363.24 K, 1810 kPa, Fluid (supercritical or subcritical phases), x1 = 0.2691	28.7
363.24 K, 2014 kPa, Fluid (supercritical or subcritical phases), x1 = 0.2691	32.7
363.24 K, 2204 kPa, Fluid (supercritical or subcritical phases), x1 = 0.2691	36.6
363.24 K, 2401 kPa, Fluid (supercritical or subcritical phases), x1 = 0.2691	40.6
363.24 K, 2576 kPa, Fluid (supercritical or subcritical phases), x1 = 0.2691	44.4
363.24 K, 2742 kPa, Fluid (supercritical or subcritical phases), x1 = 0.2691	48.3
363.24 K, 2905 kPa, Fluid (supercritical or subcritical phases), x1 = 0.2691	52.3
363.24 K, 3058 kPa, Fluid (supercritical or subcritical phases), x1 = 0.2691	56.2
363.24 K, 3211 kPa, Fluid (supercritical or subcritical phases), x1 = 0.2691	60.3
363.24 K, 3358 kPa, Fluid (supercritical or subcritical phases), x1 = 0.2691	64.4
363.24 K, 3493 kPa, Fluid (supercritical or subcritical phases), x1 = 0.2691	68.4
363.24 K, 3613 kPa, Fluid (supercritical or subcritical phases), x1 = 0.2691	72.3
363.24 K, 3752 kPa, Fluid (supercritical or subcritical phases), x1 = 0.2691	76.3
363.24 K, 3878 kPa, Fluid (supercritical or subcritical phases), x1 = 0.2691	80.7
363.24 K, 3964 kPa, Fluid (supercritical or subcritical phases), x1 = 0.2691	84.5
363.24 K, 4056 kPa, Fluid (supercritical or subcritical phases), x1 = 0.2691	88.4
363.24 K, 4156 kPa, Fluid (supercritical or subcritical phases), x1 = 0.2691	92.4
363.24 K, 4237 kPa, Fluid (supercritical or subcritical phases), x1 = 0.2691	96.3
363.24 K, 4354 kPa, Fluid (supercritical or subcritical phases), x1 = 0.2691	102.5
363.24 K, 4468 kPa, Fluid (supercritical or subcritical phases), x1 = 0.2691	108.5
363.24 K, 4619 kPa, Fluid (supercritical or subcritical phases), x1 = 0.2691	120.8
363.24 K, 4747 kPa, Fluid (supercritical or subcritical phases), x1 = 0.2691	132.2
363.24 K, 4838 kPa, Fluid (supercritical or subcritical phases), x1 = 0.2691	142.5
363.24 K, 4877 kPa, Fluid (supercritical or subcritical phases), x1 = 0.2691	152.9
363.24 K, 4905 kPa, Fluid (supercritical or subcritical phases), x1 = 0.2691	166.8
363.24 K, 4932 kPa, Fluid (supercritical or subcritical phases), x1 = 0.2691	180.1
363.24 K, 4954 kPa, Fluid (supercritical or subcritical phases), x1 = 0.2691	190.9
363.24 K, 4982 kPa, Fluid (supercritical or subcritical phases), x1 = 0.2691	203.7
363.24 K, 5002 kPa, Fluid (supercritical or subcritical phases), x1 = 0.2691	216
363.24 K, 5021 kPa, Fluid (supercritical or subcritical phases), x1 = 0.2691	229.7
363.24 K, 5043 kPa, Fluid (supercritical or subcritical phases), x1 = 0.2691	241.1
363.24 K, 5101 kPa, Fluid (supercritical or subcritical phases), x1 = 0.2691	254
363.24 K, 5146 kPa, Fluid (supercritical or subcritical phases), x1 = 0.2691	266.2
363.24 K, 5182 kPa, Fluid (supercritical or subcritical phases), x1 = 0.2691	277.5
363.24 K, 5220 kPa, Fluid (supercritical or subcritical phases), x1 = 0.2691	288.7
363.24 K, 5267 kPa, Fluid (supercritical or subcritical phases), x1 = 0.2691	299.6
363.24 K, 5324 kPa, Fluid (supercritical or subcritical phases), x1 = 0.2691	307.2
363.24 K, 5360 kPa, Fluid (supercritical or subcritical phases), x1 = 0.2691	313.4
363.24 K, 5410 kPa, Fluid (supercritical or subcritical phases), x1 = 0.2691	319.7
363.24 K, 5474 kPa, Fluid (supercritical or subcritical phases), x1 = 0.2691	326
363.24 K, 5549 kPa, Fluid (supercritical or subcritical phases), x1 = 0.2691	332.3
363.24 K, 5632 kPa, Fluid (supercritical or subcritical phases), x1 = 0.2691	339.4
363.24 K, 5762 kPa, Fluid (supercritical or subcritical phases), x1 = 0.2691	346.5
363.24 K, 5914 kPa, Fluid (supercritical or subcritical phases), x1 = 0.2691	353.3
363.24 K, 6056 kPa, Fluid (supercritical or subcritical phases), x1 = 0.2691	359.2
363.24 K, 6228 kPa, Fluid (supercritical or subcritical phases), x1 = 0.2691	365.4
363.24 K, 6441 kPa, Fluid (supercritical or subcritical phases), x1 = 0.2691	371.6
363.24 K, 6679 kPa, Fluid (supercritical or subcritical phases), x1 = 0.2691	377.7
363.24 K, 6961 kPa, Fluid (supercritical or subcritical phases), x1 = 0.2691	383.9
363.24 K, 7276 kPa, Fluid (supercritical or subcritical phases), x1 = 0.2691	390
363.24 K, 7639 kPa, Fluid (supercritical or subcritical phases), x1 = 0.2691	396.1
363.24 K, 8055 kPa, Fluid (supercritical or subcritical phases), x1 = 0.2691	402.1
363.24 K, 8511 kPa, Fluid (supercritical or subcritical phases), x1 = 0.2691	408
363.24 K, 9002 kPa, Fluid (supercritical or subcritical phases), x1 = 0.2691	413.7
363.24 K, 9557 kPa, Fluid (supercritical or subcritical phases), x1 = 0.2691	419.4
363.24 K, 10183 kPa, Fluid (supercritical or subcritical phases), x1 = 0.2691	425.2
363.24 K, 10878 kPa, Fluid (supercritical or subcritical phases), x1 = 0.2691	431.1
363.24 K, 11648 kPa, Fluid (supercritical or subcritical phases), x1 = 0.2691	436.9
363.24 K, 12515 kPa, Fluid (supercritical or subcritical phases), x1 = 0.2691	442.7
363.24 K, 13444 kPa, Fluid (supercritical or subcritical phases), x1 = 0.2691	448.5
363.24 K, 14452 kPa, Fluid (supercritical or subcritical phases), x1 = 0.2691	454.1
363.24 K, 15616 kPa, Fluid (supercritical or subcritical phases), x1 = 0.2691	460.1
363.24 K, 16807 kPa, Fluid (supercritical or subcritical phases), x1 = 0.2691	465.7
363.24 K, 18163 kPa, Fluid (supercritical or subcritical phases), x1 = 0.2691	471.5
363.24 K, 19596 kPa, Fluid (supercritical or subcritical phases), x1 = 0.2691	477.1
363.24 K, 20717 kPa, Fluid (supercritical or subcritical phases), x1 = 0.2691	481.2
363.24 K, 21739 kPa, Fluid (supercritical or subcritical phases), x1 = 0.2691	484.7
363.24 K, 22936 kPa, Fluid (supercritical or subcritical phases), x1 = 0.2691	488.7
363.24 K, 24149 kPa, Fluid (supercritical or subcritical phases), x1 = 0.2691	492.4
363.24 K, 25434 kPa, Fluid (supercritical or subcritical phases), x1 = 0.2691	496.2
363.24 K, 26773 kPa, Fluid (supercritical or subcritical phases), x1 = 0.2691	500
363.24 K, 28220 kPa, Fluid (supercritical or subcritical phases), x1 = 0.2691	503.8
363.24 K, 29831 kPa, Fluid (supercritical or subcritical phases), x1 = 0.2691	507.9
363.24 K, 31352 kPa, Fluid (supercritical or subcritical phases), x1 = 0.2691	511.5
363.24 K, 32889 kPa, Fluid (supercritical or subcritical phases), x1 = 0.2691	515
363.24 K, 34710 kPa, Fluid (supercritical or subcritical phases), x1 = 0.2691	519
